Experimental data reported in US20210179680A1, “POLYPEPTIDE, DERIVATIVES THEREOF, AND APPLICATION THEREOF IN PREPARATION OF DRUGS HAVING RESISTANCE TO PULMONARY FIBROSIS” (priority 2016, published 2021).
Bridge positions count the residues as written; N and C are the ends. Square brackets hold non-standard residues; d marks the D form. Peptide text beside a SMILES is read from it. S5 = C=CCCC[C@](C)(N)C(=O)O

Test system: mice with bleomycin-induced pulmonary fibrosis
Assay: Hydroxyproline content in lung of mice with pulmonary fibrosis
Assay type: in vivo, C57BL/6 mice
Details: Table 3 groups, 2 mg/kg i.p.; left lung lobes; chloramine-T method
Description: Male C57BL/6 mice were fasted overnight, then anesthetized with 45 mg/kg sodium pentobarbital by injection intraperitoneally (i.p.), and intratracheally injected with bleomycin at a dose of 3 U/kg. The specific operation steps are as follows: cut the neck skin of the mouse with as little trauma as possible, expose the trachea with the assistance of elbow ophthalmic forceps, puncture the trachea and inject about 50 μL of bleomycin into the trachea with a microsyringe, rotate the mouse quickly and stand it upright for 5 minutes in order to make bleomycin evenly enter the left and right lobe, thereby constructing an animal model. The whole operation was performed at a surgical table at about […]. Mice in the sham operation group were intratracheally injected with an equal amount of physiological saline for injection.
(§1) Hydroxyproline accounts for 13.4% (w/w) of collagen, and extremely small amount of elastin, while it is absent in other proteins. […] Pulmonary fibrosis models were prepared according to the method described in Example 2 and administered in groups according to Table 3. The content of hydroxyproline in the lobes of left lung of the animals was measured 28 days later, and the condition of pulmonary fibrosis was evaluated.
The specific method is as follows: the mice in the animal model prepared in Example 2 was feed in a SPF animal room and treated with polypeptide according to the dosing schedule of Table 3, and all left lobes of lung of the experimental animal was taken on the 21st day after the animal model was constructed and the wet weight was recorded. Then 10% (w/w) tissue homogenate was prepared by ultrasonic homogenization using physiological saline. About 150 μL of homogenate supernatant was taken, and 500 μL of alkali hydrolysate was added (provided by Hydroxyproline alkaline hydrolysis kit of Nanjing Jiancheng Bioengineering Technology Co., Ltd.). After vortex mixing, the mixture was treated with alkaline hydrolysis for 40 min under conditions of 120° C., 0.1 Kpa. After adjusting the pH value, the volume was held constant, and the supernatant was taken after performing activated carbon treatment. The hydroxyproline was determined according to the chloramine-T method (the method of the present example refers to the instruction provided with kit, which was purchased from Nanjing Jiancheng Bioengineering Technology Co., Ltd.). […] In FIG. 10, “##” represents that P value is less than 0.01 when comparing the content of hydroxyproline in the administration group with that in the sham operation group; and “*” represents that P value is less than 0.05 and“**” represents that P value is less than 0.01 when comparing the content of hydroxyproline in the administration group with that in bleomycin group.
as §1, with “collagen, and accounts for extremely small” for “collagen, and extremely small”, “in the all lobes of” for “in the lobes of”
The specific method is as follows: the mice in the animal model prepared in Example 2 was feed in an SPF animal room and treated with polypeptide according to the dosing schedule of Table 3, and all the left lobes of lung of the experimental animal was taken on the 21st day after the animal model was constructed and the wet weight was recorded. Then 10% (w/w) tissue homogenate was prepared by ultrasonic homogenization using physiological saline. About 150 μL of homogenate supernatant was taken, and 500 μL of alkali hydrolysate was added (provided by Hydroxyproline alkaline hydrolysis kit of Nanjing Jiancheng Bioengineering Technology Co., Ltd.). After vortex mixing, the mixture was treated with alkaline hydrolysis for 40 min under conditions of 120° C., 0.1 Kpa. […]

SMILES | hydroxyproline content (μg/mg protein)
CSCC[C@H](NC(=O)[C@H](CC(C)C)NC(=O)[C@@H](N)Cc1c[nH]cn1)C(=O)N[C@@H](C)C(=O)N[C@@H](CS)C(=O)N[C@@]1(C)CCCC=CCCC[C@@](C)(C(=O)N[C@@H](CCCCN)C(=O)N[C@@H](CC(C)C)C(=O)N[C@@H](CCCCN)C(=O)N[C@@H](CCCCN)C(=O)N[C@@H](CCCNC(=N)N)C(=O)O)NC(=O)[C@H](C)NC(=O)[C@H](CS)NC(=O)[C@H]([C@@H](C)O)NC1=O [S6, His-Leu-Met-Ala-Cys-S5-Thr-Cys-Ala-S5-Lys-Leu-Lys-Lys-Arg] (H-HLMAC[S5]TCA[S5]KLKKR-OH; staple 6-10; N-terminus and C-terminus assumed) | 0.8337
CSCC[C@H](NC(=O)[C@H](CC(C)C)NC(=O)[C@@H](N)Cc1c[nH]cn1)C(=O)N[C@@H](C)C(=O)N[C@@H](CS)C(=O)N[C@@H](Cc1ccccc1)C(=O)N[C@@]1(C)CCCC=CCCC[C@@](C)(C(=O)N[C@@H](CC(C)C)C(=O)N[C@@H](CCCCN)C(=O)N[C@@H](CCCCN)C(=O)N[C@@H](CCCNC(=N)N)C(=O)O)NC(=O)[C@H](CCCCN)NC(=O)[C@H](C)NC(=O)[C@H](CS)NC1=O [S7, His-Leu-Met-Ala-Cys-Phe-S5-Cys-Ala-Lys-S5-Leu-Lys-Lys-Arg] (H-HLMACF[S5]CAK[S5]LKKR-OH; staple 7-11; N-terminus and C-terminus assumed) | 0.655
